Values belong to the compound of their own block, whether it stands above or below them.
Key:
Test in all cases: Caliper, Mobility shift assay off-chip
[1] = target: LATS2 (human) (UniProt Q9NRM7)
[2] = target: ALK EML4 (human) (UniProt Q9HC35+Q9UM73)
[3] = target: PRKAA1 (human) (UniProt Q13131)
[4] = target: AURKC (human) (UniProt Q9UQB9)
[5] = target: ZAP70 (human) (UniProt P43403)
[6] = target: CHEK2 (human) (UniProt O96017)
[7] = target: PBK (human) (UniProt Q96KB5)
[8] = target: PTK2 (human) (UniProt Q05397)
[9] = target: PAK4 (human) (UniProt O96013)
[10] = target: CAMK2D (human) (UniProt Q13557)
[11] = target: CAMK1D (human) (UniProt Q8IU85)
[12] = target: AXL (human) (UniProt P30530)
[13] = target: MAPK3 (human) (UniProt P27361)
[14] = target: NIM1 (human) (UniProt Q8IY84)
[15] = target: CSNK1G2 (human) (UniProt P78368)
[16] = target: ERBB4 (human) (UniProt Q15303)
[17] = target: PAK7 (human) (UniProt Q9P286)
[18] = target: KDR (human) (UniProt P35968)
[19] = target: PTK2B (human) (UniProt Q14289)
[20] = target: MARK3 (human) (UniProt P27448)
[21] = target: DYRK1B (human) (UniProt Q9Y463)
[22] = target: AKT3 (human) (UniProt Q9Y243)
[23] = target: PGK1 (human) (UniProt P00558)
[24] = target: STK38 (human) (UniProt Q15208)
[25] = target: TAOK2 (human) (UniProt Q9UL54)
[26] = target: MKNK1 (human) (UniProt Q9BUB5)
[27] = target: ROCK1 (human) (UniProt Q13464)
[28] = target: MAPKAPK2 (human) (UniProt P49137)
[29] = target: PIM3 (human) (UniProt Q86V86)
[30] = target: CAMK2A (human) (UniProt Q9UQM7)
[31] = target: ROCK2 (human) (UniProt O75116)
[32] = target: NEK6 (human) (UniProt Q9HC98)
[33] = target: HIPK2 (human) (UniProt Q9H2X6)
[34] = target: MAPK8 (human) (UniProt P45983)

Sequence of NEK6 (human) (Q9HC98 whole entry, looked up): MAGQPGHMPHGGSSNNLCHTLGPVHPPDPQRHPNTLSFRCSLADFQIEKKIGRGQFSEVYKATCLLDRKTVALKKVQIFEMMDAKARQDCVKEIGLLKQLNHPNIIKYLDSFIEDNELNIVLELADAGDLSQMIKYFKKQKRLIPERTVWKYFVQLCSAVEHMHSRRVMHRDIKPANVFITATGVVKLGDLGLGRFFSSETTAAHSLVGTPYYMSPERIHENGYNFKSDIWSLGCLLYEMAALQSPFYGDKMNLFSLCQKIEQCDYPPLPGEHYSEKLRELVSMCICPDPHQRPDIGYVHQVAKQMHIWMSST
Sequence of ROCK1 (human) (Q13464 whole entry, looked up): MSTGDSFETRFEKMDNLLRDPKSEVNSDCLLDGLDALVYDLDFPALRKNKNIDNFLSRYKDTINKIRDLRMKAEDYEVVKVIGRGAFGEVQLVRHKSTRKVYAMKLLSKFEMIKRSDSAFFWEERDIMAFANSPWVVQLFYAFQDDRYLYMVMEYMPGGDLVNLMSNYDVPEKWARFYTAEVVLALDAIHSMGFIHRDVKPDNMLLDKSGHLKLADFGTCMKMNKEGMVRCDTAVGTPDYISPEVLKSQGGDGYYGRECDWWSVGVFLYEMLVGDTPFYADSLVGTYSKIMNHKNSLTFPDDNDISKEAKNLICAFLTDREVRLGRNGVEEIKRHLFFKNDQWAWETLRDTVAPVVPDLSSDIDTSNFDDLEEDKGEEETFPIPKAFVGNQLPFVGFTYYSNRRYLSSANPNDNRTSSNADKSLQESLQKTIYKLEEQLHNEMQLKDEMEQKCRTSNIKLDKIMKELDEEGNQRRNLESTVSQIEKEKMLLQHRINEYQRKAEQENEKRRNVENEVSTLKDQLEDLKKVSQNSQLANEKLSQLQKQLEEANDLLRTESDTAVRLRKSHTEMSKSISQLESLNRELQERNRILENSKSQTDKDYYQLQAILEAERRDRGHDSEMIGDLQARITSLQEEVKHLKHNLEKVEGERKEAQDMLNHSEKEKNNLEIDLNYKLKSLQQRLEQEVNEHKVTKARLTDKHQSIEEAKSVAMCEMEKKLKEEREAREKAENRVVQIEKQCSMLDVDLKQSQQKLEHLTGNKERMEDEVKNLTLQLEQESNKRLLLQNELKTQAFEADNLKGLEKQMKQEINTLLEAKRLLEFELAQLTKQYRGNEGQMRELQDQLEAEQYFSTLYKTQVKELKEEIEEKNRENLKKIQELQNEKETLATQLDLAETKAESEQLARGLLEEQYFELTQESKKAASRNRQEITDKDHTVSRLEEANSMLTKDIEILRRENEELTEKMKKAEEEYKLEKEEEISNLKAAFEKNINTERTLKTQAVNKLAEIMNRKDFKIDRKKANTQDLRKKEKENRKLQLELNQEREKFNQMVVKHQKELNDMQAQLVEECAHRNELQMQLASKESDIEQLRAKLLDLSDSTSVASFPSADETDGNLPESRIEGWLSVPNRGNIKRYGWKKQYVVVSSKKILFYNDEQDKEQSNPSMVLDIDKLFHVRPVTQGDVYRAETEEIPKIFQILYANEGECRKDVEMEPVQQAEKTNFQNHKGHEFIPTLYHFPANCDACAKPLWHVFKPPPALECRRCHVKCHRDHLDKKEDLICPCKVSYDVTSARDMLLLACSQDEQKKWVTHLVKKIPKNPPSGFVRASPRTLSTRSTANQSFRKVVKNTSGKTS
Sequence of PBK (human) (Q96KB5 whole entry, looked up): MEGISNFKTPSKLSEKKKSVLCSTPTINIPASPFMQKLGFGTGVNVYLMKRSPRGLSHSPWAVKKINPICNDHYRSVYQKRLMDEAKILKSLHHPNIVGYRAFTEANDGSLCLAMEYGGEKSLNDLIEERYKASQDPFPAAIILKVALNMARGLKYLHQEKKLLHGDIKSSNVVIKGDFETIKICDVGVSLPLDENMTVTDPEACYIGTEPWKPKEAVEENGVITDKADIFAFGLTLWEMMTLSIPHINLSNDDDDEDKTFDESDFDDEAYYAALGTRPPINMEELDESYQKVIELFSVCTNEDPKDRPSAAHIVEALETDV
Sequence of PAK7 (human) (Q9P286 whole entry, looked up): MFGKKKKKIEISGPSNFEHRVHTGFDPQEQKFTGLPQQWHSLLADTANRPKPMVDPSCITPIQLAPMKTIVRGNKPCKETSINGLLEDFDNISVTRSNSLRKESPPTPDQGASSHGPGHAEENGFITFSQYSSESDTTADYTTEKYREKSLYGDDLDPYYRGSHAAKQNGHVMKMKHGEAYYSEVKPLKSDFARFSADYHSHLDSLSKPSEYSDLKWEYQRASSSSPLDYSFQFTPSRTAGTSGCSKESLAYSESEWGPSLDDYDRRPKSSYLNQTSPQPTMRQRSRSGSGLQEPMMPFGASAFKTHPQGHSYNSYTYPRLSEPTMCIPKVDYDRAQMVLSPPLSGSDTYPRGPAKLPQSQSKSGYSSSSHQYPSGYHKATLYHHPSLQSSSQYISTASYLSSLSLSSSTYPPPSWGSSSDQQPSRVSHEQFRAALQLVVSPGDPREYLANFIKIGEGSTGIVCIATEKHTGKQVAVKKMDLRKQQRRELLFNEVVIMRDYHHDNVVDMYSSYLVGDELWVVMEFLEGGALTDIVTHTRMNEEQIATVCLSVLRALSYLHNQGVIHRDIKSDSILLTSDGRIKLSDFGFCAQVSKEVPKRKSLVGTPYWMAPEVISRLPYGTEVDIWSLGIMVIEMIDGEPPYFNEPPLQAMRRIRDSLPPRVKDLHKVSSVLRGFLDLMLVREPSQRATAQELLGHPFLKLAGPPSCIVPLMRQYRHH
Sequence of ZAP70 (human) (P43403 whole entry, looked up): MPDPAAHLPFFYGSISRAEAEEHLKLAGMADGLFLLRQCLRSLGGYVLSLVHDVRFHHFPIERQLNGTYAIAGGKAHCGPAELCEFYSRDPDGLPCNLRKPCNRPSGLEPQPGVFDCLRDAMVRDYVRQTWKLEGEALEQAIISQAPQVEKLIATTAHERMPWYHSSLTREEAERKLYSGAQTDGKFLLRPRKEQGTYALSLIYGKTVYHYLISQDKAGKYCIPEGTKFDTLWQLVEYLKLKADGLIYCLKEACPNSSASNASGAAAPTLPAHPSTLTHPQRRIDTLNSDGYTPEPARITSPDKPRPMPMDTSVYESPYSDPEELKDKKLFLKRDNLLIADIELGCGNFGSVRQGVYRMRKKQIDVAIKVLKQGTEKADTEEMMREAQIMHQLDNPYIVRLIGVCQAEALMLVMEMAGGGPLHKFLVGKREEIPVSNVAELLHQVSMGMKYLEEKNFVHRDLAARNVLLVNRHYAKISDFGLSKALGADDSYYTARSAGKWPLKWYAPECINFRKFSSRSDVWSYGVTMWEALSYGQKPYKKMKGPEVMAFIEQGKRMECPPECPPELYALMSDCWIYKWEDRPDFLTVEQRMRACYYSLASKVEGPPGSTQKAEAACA
Sequence of PTK2 (human) (Q05397 whole entry, looked up): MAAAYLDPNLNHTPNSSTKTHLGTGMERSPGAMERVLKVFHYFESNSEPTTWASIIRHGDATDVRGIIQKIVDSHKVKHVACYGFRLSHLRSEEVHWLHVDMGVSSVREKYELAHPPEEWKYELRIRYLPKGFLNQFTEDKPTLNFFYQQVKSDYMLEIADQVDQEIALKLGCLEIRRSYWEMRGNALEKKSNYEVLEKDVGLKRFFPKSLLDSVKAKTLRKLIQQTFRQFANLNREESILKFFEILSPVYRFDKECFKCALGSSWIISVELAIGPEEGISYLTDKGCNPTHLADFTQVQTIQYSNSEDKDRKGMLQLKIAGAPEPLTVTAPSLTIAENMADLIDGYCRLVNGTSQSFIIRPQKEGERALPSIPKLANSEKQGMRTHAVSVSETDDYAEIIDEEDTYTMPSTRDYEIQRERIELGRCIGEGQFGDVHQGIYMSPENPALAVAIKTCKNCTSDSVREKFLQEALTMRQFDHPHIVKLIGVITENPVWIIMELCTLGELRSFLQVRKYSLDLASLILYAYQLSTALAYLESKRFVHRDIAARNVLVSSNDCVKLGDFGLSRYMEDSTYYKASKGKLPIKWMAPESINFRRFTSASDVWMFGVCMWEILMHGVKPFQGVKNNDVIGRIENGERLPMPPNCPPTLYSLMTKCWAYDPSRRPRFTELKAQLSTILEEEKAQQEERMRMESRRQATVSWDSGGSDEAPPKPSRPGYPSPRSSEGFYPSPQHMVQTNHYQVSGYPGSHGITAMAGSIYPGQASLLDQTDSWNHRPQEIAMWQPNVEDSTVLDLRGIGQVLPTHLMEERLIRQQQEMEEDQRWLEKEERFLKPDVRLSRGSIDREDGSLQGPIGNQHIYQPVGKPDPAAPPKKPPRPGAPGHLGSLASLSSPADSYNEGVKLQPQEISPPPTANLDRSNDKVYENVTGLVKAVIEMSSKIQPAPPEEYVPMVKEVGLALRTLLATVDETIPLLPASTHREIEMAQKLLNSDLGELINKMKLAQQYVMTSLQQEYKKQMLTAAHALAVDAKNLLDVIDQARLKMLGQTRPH
Sequence of NIM1 (human) (Q8IY84 whole entry, looked up): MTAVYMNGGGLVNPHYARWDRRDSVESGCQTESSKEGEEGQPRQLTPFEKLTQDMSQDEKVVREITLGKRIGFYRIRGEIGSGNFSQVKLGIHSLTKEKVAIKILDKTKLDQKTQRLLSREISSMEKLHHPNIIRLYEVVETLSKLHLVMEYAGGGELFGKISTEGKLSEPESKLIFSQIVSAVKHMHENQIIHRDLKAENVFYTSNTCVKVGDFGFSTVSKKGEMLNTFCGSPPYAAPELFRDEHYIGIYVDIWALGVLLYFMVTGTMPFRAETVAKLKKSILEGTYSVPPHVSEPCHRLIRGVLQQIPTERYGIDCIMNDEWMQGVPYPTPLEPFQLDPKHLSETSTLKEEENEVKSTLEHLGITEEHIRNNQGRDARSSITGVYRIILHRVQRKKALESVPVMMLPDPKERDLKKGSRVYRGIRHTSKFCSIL

inhibition ([1]; compound 0.02 µM): -2.1%
inhibition ([1]; compound 0.2 µM): -0.3%
inhibition ([2]; compound 0.02 µM): -0.3%
inhibition ([2]; compound 0.2 µM): 6.8%
inhibition ([3]; compound 0.02 µM): 8%
inhibition ([3]; compound 0.2 µM): -10.1%
inhibition ([4]; compound 0.02 µM): -0.4%
inhibition ([4]; compound 0.2 µM): 21.5%
inhibition ([5]; compound 0.02 µM): 7%
inhibition ([5]; compound 0.2 µM): 13.3%
inhibition ([6]; compound 0.02 µM): 4.1%
inhibition ([6]; compound 0.2 µM): 4.1%
inhibition ([7]; compound 0.02 µM): -3.9%
inhibition ([7]; compound 0.2 µM): -9.3%
inhibition ([8]; compound 0.02 µM): -2%
inhibition ([8]; compound 0.2 µM): 8.3%
inhibition ([9]; compound 0.02 µM): 0.9%
inhibition ([9]; compound 0.2 µM): 8%
inhibition ([10]; compound 0.02 µM): 4.9%
inhibition ([10]; compound 0.2 µM): 4.6%
inhibition ([11]; compound 0.02 µM): -0.2%
inhibition ([11]; compound 0.2 µM): 2.9%
inhibition ([12]; compound 0.02 µM): 1.7%
inhibition ([12]; compound 0.2 µM): 10.3%
inhibition ([13]; compound 0.02 µM): -5%
inhibition ([13]; compound 0.2 µM): -2.7%
inhibition ([14]; compound 0.02 µM): -11.7%
inhibition ([14]; compound 0.2 µM): 10.4%
inhibition ([15]; compound 0.02 µM): 1.7%
inhibition ([15]; compound 0.2 µM): 0.3%
inhibition ([16]; compound 0.02 µM): 8.4%
inhibition ([16]; compound 0.2 µM): 2.6%
inhibition ([17]; compound 0.02 µM): 9%
inhibition ([17]; compound 0.2 µM): 1.3%
inhibition ([18]; compound 0.02 µM): 81.6%
inhibition ([18]; compound 0.2 µM): 99.2%
inhibition ([19]; compound 0.02 µM): -0.4%
inhibition ([19]; compound 0.2 µM): 9.7%
inhibition ([20]; compound 0.02 µM): 1.7%
inhibition ([20]; compound 0.2 µM): -3.6%
inhibition ([21]; compound 0.02 µM): -4.3%
inhibition ([21]; compound 0.2 µM): 7.4%
inhibition ([22]; compound 0.02 µM): -3.2%
inhibition ([22]; compound 0.2 µM): -2.6%
inhibition ([23]; compound 0.02 µM): -5.4%
inhibition ([23]; compound 0.2 µM): -2.2%
inhibition ([24]; compound 0.02 µM): 0.1%
inhibition ([24]; compound 0.2 µM): 7.5%
inhibition ([25]; compound 0.02 µM): 3.7%
inhibition ([25]; compound 0.2 µM): 22.3%
inhibition ([26]; compound 0.02 µM): 6.1%
inhibition ([26]; compound 0.2 µM): 3.1%
inhibition ([27]; compound 0.02 µM): 1.7%
inhibition ([27]; compound 0.2 µM): 4.4%
inhibition ([28]; compound 0.02 µM): 5.5%
inhibition ([28]; compound 0.2 µM): 1.5%
inhibition ([29]; compound 0.02 µM): -3.4%
inhibition ([29]; compound 0.2 µM): -4.2%
inhibition ([30]; compound 0.02 µM): 5.3%
inhibition ([30]; compound 0.2 µM): 5.1%
inhibition ([31]; compound 0.02 µM): -3.7%
inhibition ([31]; compound 0.2 µM): -1.3%
inhibition ([32]; compound 0.02 µM): -4.8%
inhibition ([32]; compound 0.2 µM): -1.2%
inhibition ([33]; compound 0.02 µM): 1.4%
inhibition ([33]; compound 0.2 µM): 3.3%
SMILES: Cc1ccc(Nc2nccc(N(C)c3ccc4c(C)n(C)nc4c3)n2)cc1S(N)(=O)=O

inhibition ([1]; compound 0.02 µM): -2.3%
inhibition ([2]; compound 0.001 µM): -2%
inhibition ([2]; compound 0.02 µM): -3.9%
inhibition ([3]; compound 0.001 µM): 7.1%
inhibition ([3]; compound 0.02 µM): 10.1%
inhibition ([4]; compound 0.001 µM): -2.1%
inhibition ([4]; compound 0.02 µM): 42.3%
inhibition ([5]; compound 0.001 µM): -0.5%
inhibition ([5]; compound 0.02 µM): 2.7%
inhibition ([7]; compound 0.001 µM): -7.6%
inhibition ([7]; compound 0.02 µM): -7.4%
inhibition ([8]; compound 0.001 µM): -7.1%
inhibition ([8]; compound 0.02 µM): -5.9%
inhibition ([9]; compound 0.001 µM): 3.3%
inhibition ([9]; compound 0.02 µM): 0.8%
inhibition ([10]; compound 0.001 µM): 3%
inhibition ([10]; compound 0.02 µM): 2.4%
inhibition ([11]; compound 0.001 µM): -0.4%
inhibition ([11]; compound 0.02 µM): -0.8%
inhibition ([12]; compound 0.001 µM): -0.8%
inhibition ([12]; compound 0.02 µM): 4.1%
inhibition ([13]; compound 0.001 µM): -4.1%
inhibition ([13]; compound 0.02 µM): -6.1%
inhibition ([14]; compound 0.001 µM): 13.8%
inhibition ([14]; compound 0.02 µM): -10.4%
inhibition ([15]; compound 0.001 µM): -2.9%
inhibition ([15]; compound 0.02 µM): -1.6%
inhibition ([34]; compound 0.001 µM): -3.3%
inhibition ([34]; compound 0.02 µM): -3.5%
inhibition ([16]; compound 0.001 µM): 6.3%
inhibition ([16]; compound 0.02 µM): 3.7%
inhibition ([17]; compound 0.001 µM): -2.5%
inhibition ([17]; compound 0.02 µM): 7%
inhibition ([18]; compound 0.001 µM): 47.3%
inhibition ([18]; compound 0.02 µM): 97.4%
inhibition ([19]; compound 0.001 µM): -4.6%
inhibition ([19]; compound 0.02 µM): -1.4%
inhibition ([20]; compound 0.001 µM): -1%
inhibition ([21]; compound 0.001 µM): 3.6%
inhibition ([21]; compound 0.02 µM): -0.4%
inhibition ([22]; compound 0.001 µM): -5.4%
inhibition ([22]; compound 0.02 µM): -5.5%
inhibition ([23]; compound 0.001 µM): -3.7%
inhibition ([23]; compound 0.02 µM): -5.3%
inhibition ([24]; compound 0.001 µM): 8%
inhibition ([24]; compound 0.02 µM): -1.3%
inhibition ([25]; compound 0.001 µM): -4.1%
inhibition ([25]; compound 0.02 µM): -6.1%
inhibition ([26]; compound 0.001 µM): -6.1%
inhibition ([26]; compound 0.02 µM): 4.1%
inhibition ([27]; compound 0.001 µM): 5.8%
inhibition ([27]; compound 0.02 µM): 0.7%
inhibition ([28]; compound 0.001 µM): 2.3%
inhibition ([28]; compound 0.02 µM): -0.8%
inhibition ([29]; compound 0.001 µM): -7.7%
inhibition ([29]; compound 0.02 µM): -5.9%
inhibition ([30]; compound 0.001 µM): 3.7%
inhibition ([30]; compound 0.02 µM): 3.2%
inhibition ([31]; compound 0.001 µM): 1.6%
inhibition ([31]; compound 0.02 µM): -4.7%
inhibition ([32]; compound 0.001 µM): -7.6%
inhibition ([32]; compound 0.02 µM): -5.8%
inhibition ([33]; compound 0.001 µM): -4.6%
inhibition ([33]; compound 0.02 µM): -0.1%
SMILES: CNC(=O)c1ccccc1Sc1ccc2c(/C=C/c3ccccn3)n[nH]c2c1

— the kinase profiling compilation of Christmann-Franck et al. (2016)
